Test results taken from ChEMBL document CHEMBL3817784, “The role of transporter ectodomains in drug recognition and binding: phlorizin and the sodiumglucose cotransporter” (Medchemcomm, 2016).

Assays:
Homo sapiens [1] = organism: Homo sapiens; assay: Binding affinity to SGLT1 D621W mutant (unknown origin) by tryptophan fluorescence quenching method
Homo sapiens [2] = organism: Homo sapiens; assay: Binding affinity to SGLT1 R601W mutant (unknown origin) by tryptophan fluorescence quenching method
[3] = molecular target: T1, Sodium/glucose cotransporter 2 (Rattus norvegicus, UniProt P53792); assay: Binding affinity to SGLT2 in isolated rat renal cortex brush border membranes using maleimide-PEG800-NHS to couple compound to AFM cantilever tip
T1 sequence (P53792 whole entry): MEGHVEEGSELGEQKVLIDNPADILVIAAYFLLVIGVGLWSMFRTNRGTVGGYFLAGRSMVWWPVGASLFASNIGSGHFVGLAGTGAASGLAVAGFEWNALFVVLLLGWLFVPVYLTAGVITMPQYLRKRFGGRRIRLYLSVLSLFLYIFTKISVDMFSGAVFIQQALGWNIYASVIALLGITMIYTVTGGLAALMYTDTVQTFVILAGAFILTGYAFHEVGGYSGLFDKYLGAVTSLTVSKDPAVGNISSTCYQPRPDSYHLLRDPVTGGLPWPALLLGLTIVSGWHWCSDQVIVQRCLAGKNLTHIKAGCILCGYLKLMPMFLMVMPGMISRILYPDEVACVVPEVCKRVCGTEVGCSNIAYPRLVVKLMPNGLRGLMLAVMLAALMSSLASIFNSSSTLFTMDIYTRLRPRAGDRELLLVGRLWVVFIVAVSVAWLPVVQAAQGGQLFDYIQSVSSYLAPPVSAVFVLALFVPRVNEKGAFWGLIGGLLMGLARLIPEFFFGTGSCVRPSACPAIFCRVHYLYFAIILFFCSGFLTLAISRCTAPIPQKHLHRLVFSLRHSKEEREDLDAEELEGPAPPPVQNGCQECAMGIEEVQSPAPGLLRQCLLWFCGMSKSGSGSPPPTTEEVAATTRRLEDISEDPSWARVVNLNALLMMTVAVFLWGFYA

Qmax (Homo sapiens [1]) [%]	Qmax (Homo sapiens [2]) [%]	Kd [3] [nM]	Compound
80	67		O=C(CCc1ccc(O)cc1)c1c(O)cc(O)cc1O[C@@H]1O[C@H](CO)[C@@H](O)[C@H](O)[C@H]1O
		200	O=C(CCCCCS)Nc1cc(CCC(=O)c2c(O)cc(O)cc2O[C@@H]2O[C@H](CO)[C@@H](O)[C@H](O)[C@H]2O)ccc1O
